By EC50 is commonly meant the concentration giving half of the maximal effect.

Results on 1 compound are retold here after PubChem BioAssay AID488825 (NMMLSC, 2010).

For this experiment, the system named is S. cerevisiae CIT2-GFP strain, flow cytometry fluorescence, 3 h. Nature of the experiment: CIT2-GFP expression modulators in yeast, SAR follow-up, flow cytometry, cherry pick 3, dose response (AID 488825). In general terms: A flow cytometer gives signals particle by particle.

Each structure is given as a SMILES string.

As to `CNc1nc(N)c([N+](=O)[O-])c(Nc2cccc(Cl)c2)n1`, the EC50 was 5.72 µM.
